# Laboratory results taken from patent US20050164976A1, “Combination of a cdk inhibitor and 5-fu for the tratment of cancer” (Cyclacel Limited, priority 2002, published 2005).
# What was measured:
# HT29 cells [1] = experiment: activated caspase-3 assay; assay type: cell-based, human; details: single agent, dose dependent
# [2] = tested on: human mammary cancer xenograft MAXF 857; details: 5FU alone at the concentrations used in the combination
# Protocol: Cells were passed through sieves of 200 μm and 50 μm mesh size and washed twice with sterile PBS-buffer (Life Technologies). The percentage of viable cells was determined in a Neubauer-hemocytometer using trypan blue exclusion.
# The clonogenic assay was performed in a 24-well format according to a modified two-layer soft agar assay introduced by Hamburger et al [Hamburger, A. W. & S. E. Salmon. […] The bottom layer consisted of 0.2 ml/well of Iscove's Modified Dulbecco's Medium (supplemented with 20% (v/v) fetal calf serum and 0.01% (v/v) gentamicin) and 0.75% (w/v) agar. 5·10^4 cells were added to 0.2 ml of the same culture medium supplemented with 0.4% (w/v) agar and plated in 24-multiwell dishes onto the bottom layer. Cytostatic drugs were applied by continuous exposure (drug overlay) in 0.2 ml culture medium 24 hours after seeding in the cells. Every dish included six control wells and drug-treated groups in triplicate at 6 concentrations. […] Cultures were incubated at 37° C. and 7.5% CO2 in a humidified atmosphere for 8-20 days and monitored closely for colony growth using an inverted microscope. Within this period, in vitro tumor growth led to the formation of colonies with a diameter of >50 μm. At the time of maximum colony formation, counts were performed with an automatic image analysis system (OMNICON FAS IV, Biosys GmbH). […]
# HT29 cells [3] = experiment: cells; details: Homo sapiens, HT-29
# Text: Cells were washed in media to inactivate trypsin before reseeding or analysis.
# HT29 cells [4] = experiment: analysis of cell cycle distribution by flow cytometry; assay type: cell-based, human; details: single agent, 48 hours; roscovitine 20 μM and 40 μM; 5-FU 0.5 μM and 1 μM; dose dependent
# HT29 cells [5] = details: single agent; 40 μM roscovitine; 1 μM 5-FU
# Protocol: HT29 cells were seeded and treated with drug in the same way as for the determination of cell cycle distribution. After 24 hours, media was replaced with that containing 10 μM BrdU and incubated for 30 minutes. Detached cells were harvested, plates were washed twice in PBS and adherent cells harvested by trypsinisation. Adherent and detached cells were pooled, washed in PBS, fixed in ice cold 70% v/v ethanol and stored at 4° C. Cells were washed twice in PBS+1% BSA and treated with 2M HCl for 20 minutes, followed by a further three washes in PBS. Cells were pelleted and 2 μl of anti-BrdU antibody (Pharmingen) added to the pellet. […] After incubation at room temperature protected from light for 20 minutes, samples were analysed by flow cytometry.
# A Becton Dickinson LSR flow cytometer was used for these studies, in accordance with the manufacturers recommendations. […] Where used, activated caspase-3 and BrdU positive cells were designated as such on the basis of green fluorescence (530±28 nm), acquired on a logarithmic scale. Red fluorescence (575±26 nm) was acquired on a linear scale and pulse width analysis was used to exclude cell doublets and aggregates from the analysis. Cells with a DNA content of between 2n and 4n were designated as being in G1, S or G2/M phases of the cell cycle, as defined by the level of red fluorescence. […]
# MCF7 cells = experiment: cells; details: Homo sapiens
# Protocol: MCF7 cells were seeded at 3,000/well in 96 well plates. Cell were allowed to settle overnight, and medium replaced with drug-containing medium the next day. Nine different drug treatments were tested, in triplicate, in each plate.
structure (smiles),measurement,setting,value
"O=c1[nH]cc(F)c(=O)[nH]1 [5-FU, 5-Fluorouracil]",activation of caspase-3,HT29 cells [1],albeit to a lesser extent
same,effect on cell growth,[2],no effect on cell growth
same,IC50,HT29 cells [3],1 µM
same,effect on cell cycle distribution,HT29 cells [4],accumulation of cells in S phase
same,number of cells incorporating BrdU,HT29 cells [5],64.3%
same,IC50,MCF7 cells,8 µM
"CC[C@H](CO)Nc1nc(NCc2ccccc2)c2ncn(C(C)C)c2n1 [roscovitine, 6-benzylamino-2-[(R)-1-ethyl-2-hydroxyethylamino]-9-isopropylpurine]",activation of caspase-3,HT29 cells [1],induces activation of caspase-3
same,effect on cell cycle distribution,HT29 cells [4],accumulation of cells in G2/M
same,number of cells incorporating BrdU,HT29 cells [5],3.8%
